This note sets out measurements from patent publication US20100022639A1, “Methods of Inducing Weight Loss” (The Johns Hopkins University School of Medicine Licensing …, priority 2000, published 2010).

Data set [1] concerns adipose fatty acid synthesis. As to the kind of experiment: [U-14C]-acetate labeling of adipose tissue from C-75-treated mice. It is filed as in vivo, BALB/c mice. As to the method: Female BALB/c mice were treated with 0.6 mg of C-75 in 200 μl RPMI, or vehicle control IP (3 per group). After 3 hours, the animals were killed and approximately 5 mg of adipose tissue was labeled with [U-^14C]-acetate, lipids were extracted and counted, [A. Rashid et al., Am. J. Pathol. 150 (1997)]. […] Values represent mean +/−SEM (*P<0.05).
Male BALB/c mice (4 per group) were given 2 g/kg dextrose by oral gavage. After 15 min mice were injected IP with 20 mg/kg C-75 or RPMI vehicle. One hour post-treatment, livers were rapidly removed, frozen and pulverized in liquid nitrogen, HC104 extracted and assayed for malonyl-CoA [J. D. McGarry, M. J. Stark, D. W. Foster., J. Biol. Chem 253, 8291 (1978)]. Intraperitoneal injection of mice with C-75 leads to a 95% reduction in ^14C-acetate incorporation into fatty acids and to a 110% increase in the level of hepatic malonyl-CoA, the principal substrate of FAS. Experiments described in panels B and C were repeated twice.

The nature of data set [2]: Weight loss of C-75-treated versus fasted mice. It counts as in vivo, BALB/c mice. As to conditions: 30 mg/kg, 24 hours, n=7. From the text:
To determine whether the weight loss is attributable entirely to suppression of feeding, treatment with a dose of C-75 that completely suppresses feeding was compared with fasting. Both fasting and C-75 led to significant weight loss relative to control; however, in many experiments the C-75 treated mice lost more weight than did the fasted animals (FIG. 2A). The normal response to fasting is to reduce energy utilization to limit depletion of energy stores (Loftus, 1999). If C-75 treatment results in a “perceived fed state”, it may allow maintenance of a normal metabolic rate as well as inhibition of feeding.
Male BALB/c mice 19-21 g were preweighed and treated with vehicle or 30 mg/kg C-75 and allowed free access to food, or were denied all access to food (fasted). After 24 hours, mice were weighed. Change from initial body weight is shown in FIG. 2A, expressed as mean +/±SEM (n=7). C-75 treated mice lost 45% more weight than did the fasted animals.

The test system of data set [3] is neuropeptide Y (NPY) mRNA. Nature of the data set: Northern blot of hypothalamic NPY mRNA. It counts as in vivo, BALB/c mice. To be noted: 30 mg/kg C-75, 24 hours. The text has this: The control of body weight is integrated in the hypothalamus by a coordinated group of neuropeptides that monitor adiposity and feeding status and regulate feeding and energy utilization. A central regulator in this process is neuropeptide Y (NPY) (loftus, 1999, Sem. Cell. Dev. Biol., 10: 11). In the arcuate nucleus, the level of NPY increases in the fasted state (Schwartz, et al., 1998, Endocrinology, 139:2629), acting as a potent stimulus of feeding (O'Shea, et al., 1997, Endocrinology, 138:196-202). To ascertain whether C-75 might alter NPY regulation in the hypothalamus, the expression of NPY was examined by northern blot analysis of hypothalamic tissue microdissected from the brains of the fed, fasted and C-75-treated mice shown in FIG. 2A.
The hypothalamic region was microdissected from the brains of mice in FIG. 2A and total RNA was isolated. RNA was subjected to northern blot analysis using random primed probes (Feinberg, et al., 1983, Anal. Biochem., 132:6) for NPY and S26 (as a loading control). Tissue was extracted for total RNA as described, P. Chomczynski and N. Sacchi, Anal. Biochem. 162, 156(1987). 15 μg of total RNA was subjected to Northern blot analysis as described, T. Brown, K. Mackey, in Current Protocols in Molecular Biology, F. Ausubel, et al., Eds. (John Wiley and Sons, New York, 1997) pp. 4.9.1-4.9.16.

Data set [4] deals with feeding behavior. Nature of the data set: Feeding interval in 24 hour fasted mice. It counts as in vivo. As to conditions: 30 mg/kg IP, within 20 minutes of treatment. As to the method: Mice were fasted for 24 hours to induce voracious feeding. Initial feeding interval (time in seconds between food presentation and initiation of feeding) was measured in naive mice (pretreat). Mice were then treated by I.P. injection of 30 mg/kg C-75 or RPMI vehicle and feeding interval determined at 20, 40 and 60 minutes post-injection. Observation was terminated if no feeding was initiated within 1000 see (experimental cut off). Times represent mean +/−SEM, (n=4).
Prior to treatment, all animals fed ravenously within 3 minutes of being offered food.

Data set [5] concerns feeding behavior. As to the kind of experiment: Food intake after ICV injection of C-75. It is filed as in vivo, mice. As to conditions: ICV 2 μl at 2.5 or 5 μg/μl, food intake over 2 and 4 hours. As to the method:
This model predicts that feeding inhibition by FAS inhibitors should be attenuated by inhibitors of ACC's. To test this, mice were pretreated with the ACC inhibitor TOFA or vehicle by ICV injection and examined the ability of C-75, administered IP, to inhibit feeding. BALB/c mice were anesthetized with metofane and injected ICV with 2 μg of TOFA or DMSO vehicle. After 2 hours recovery, mice were injected IP with 15 mg C-75/kg or RPMI vehicle and monitored for total food intake over 2 hours. […] In addition, mice were anesthetized and injected ICV with 2 μl of RPMI or C-75 at 2.5 or 5 μg/μl and food intake monitored over 2 (shaded) and 4 (solid) hours. The efficacy of centrally administered TOFA argues for a central (CNS) mechanism of action. ICV administration of C-75 inhibited feeding by 82% (FIG. 5C), supporting the central target action of C-75. FIGS. 5(B) and (C) combine results from 3 experiments with N=3 for each (9 total).

The nature of data set [6]: Necropsy, histology, plasma alanine aminotransferase and tolerability in treated mice. It is filed as in vivo. From the text: (§1) Alternatively, the signal from the FAS target tissue to the hypothalamus may be mediated by a humoral signal. This FAS-associated signal appears to be independent of the systemic release of the known feeding inhibitory hormones leptin and insulin, and the pro-inflammatory cytokines tumor necrosis factor-α and interleukin-1β. Nor is it reversed by administration of dexamethasone, a synthetic glucocorticoid.
The effect of C-75 treatment on feeding behavior and body weight in mice is both rapid and dramatic. A single treatment leads to the loss of as much as 20% of total body weight within 24 hours (FIG. 1.2A). This weight loss occurs in a dose dependent manner and persists for a duration that increases with dose. In all cases, treated animals recover lost body weight after the effect of the drug has dissipated, arguing against induction of a persistent wasting.

Data set [7] is described as follows: Weight loss in mice lacking IL-1r and TNFαr1a receptors. To be noted: mouse, in vivo.
From the text: as §1

On to `C=C1C(=O)OC(CCCCCCCC)C1C(=O)O` (centres unmarked) [C-75], for which the “adipose fatty acid synthesis compared to vehicle control” value in data set [1] (0.6 mg C-75 IP, 3 hours, female BALB/c mice) is listed as “markedly inhibited”. Further, the “reduction in 14C-acetate incorporation into fatty acids” value in data set [1] (intraperitoneal injection) is reported as 95%. The “more weight lost than fasted animals” value in data set [2] amounted to 45%. Further, the “level of hypothalamic NPY mRNA” value in data set [3] is “even lower than that of the fed controls”. Further, the “feeding initiation in fasted mice” value in data set [4] is reported as “lost all interest in feeding”. Besides, the “inhibition of feeding by ICV administration” value in data set [5] is 82%. In addition, in data set [6] (single IP treatment), the tolerability in mice result is on record as “well tolerated”. Also, the “histological analysis of tissues from treated mice” value in data set [6] (single IP treatment (not shown)) is listed as “no indication of adverse pathology”. Moreover, in data set [6] (treated mice), the “necropsy and histological analysis of all major organs” value is reported as “no adverse pathology”; the “plasma alanine aminotransferase activity” value is on record as “unchanged”. Also, in data set [7], the “weight loss in mice lacking IL-1r and TNFαr1a receptors” value is listed as “weight loss was observed”.
